Laboratory results taken from patent US11744824B2, “2-amino-3-carbonyl imidazopyridine and pyrazolopyridine compounds” (1ST Biotherapeutics, Inc., priority 2020, dated 2023).

Legend:
[1] = target: GST-tagged recombinant human RIP2 (Homo sapiens (Human), UniProt O43353); assay: RIP2 Kinase Assay (ADP-Glo); type: biochemical; conditions: in vitro kinase activity, ATP 25 μM
Experimental: GST-tagged recombinant human RIP2 (25 ng) is incubated with 5 μL of compounds (0.5% DMSO), 5 μL of MBP (0.5 μg/μl) and 5 μL of ATP (25 μM) in buffer (40 mM Tris, 7.5; 20 mM MgCl2; 0.1 mg/ml BSA; 50 μM DTT). The assay was started by incubating the reaction mixture in a 96-well plate at 30° C. for 60 minutes. After the incubation, 25 μL ADP-Glo reagent was added, and the reaction was incubated at 30° C. for 40 minutes to stop the reaction and degrade residual ATP. The ADP product was then converted to ATP by adding 50 μL per well of detection reagent. Luminescence was detected after 30 minutes room temperature incubation with the Molecular device I3X plate reader. The IC50 values were calculated from a series of percent inhibition values determined at a range of inhibitor concentration using software routines as implemented in the GraphPad Prism 7 software and SigmaPlot 13.0.

[2] = tested on: IL-6 secretion in BV-2 mouse microglia cells; assay: IL-6 Secretion in BV-2 Cell (L18-MDP stimulated, ELISA); type: cell-based; conditions: BV-2 cells, 10 μg/ml L18-MDP, 24 hr
Experimental: IL-6 Secretion in BV-2 Cell
BV-2 mouse microglia cells were kindly provided from Dr. Bae in Korea Institute of Science and Technology (KIST). BV-2 cells were thawed and suspended in Dulbecco's modified eagle medium (DMEM) supplemented with 10% fetal bovine serum (FBS) and 1% Penicillin/Streptomycin. Cells were seeded into 96 well plates at 2×10^4 cells/well and allowed to attach for 24 hr. On the day of the experiment, various concentration of FB compounds was treated, and cells were stimulated with 10 μg/ml L18-MDP. After 24 hr incubation, supernatant was collected for cytokine assay.
Absorbance at 450 nm was measured using SpectraMax i3X microplate reader (Molecular Device). Values of media-only wells were subtracted and % inhibition for each compound concentration relative to the DMSO/L18-MDP-treated controls (100%) was calculated. The IC50 values were calculated from a series of percent activity values using software as implemented in the GraphPad Prism 7 software and SigmaPlot 13.0.

Sequence of GST-tagged recombinant human RIP2 (O43353 whole entry): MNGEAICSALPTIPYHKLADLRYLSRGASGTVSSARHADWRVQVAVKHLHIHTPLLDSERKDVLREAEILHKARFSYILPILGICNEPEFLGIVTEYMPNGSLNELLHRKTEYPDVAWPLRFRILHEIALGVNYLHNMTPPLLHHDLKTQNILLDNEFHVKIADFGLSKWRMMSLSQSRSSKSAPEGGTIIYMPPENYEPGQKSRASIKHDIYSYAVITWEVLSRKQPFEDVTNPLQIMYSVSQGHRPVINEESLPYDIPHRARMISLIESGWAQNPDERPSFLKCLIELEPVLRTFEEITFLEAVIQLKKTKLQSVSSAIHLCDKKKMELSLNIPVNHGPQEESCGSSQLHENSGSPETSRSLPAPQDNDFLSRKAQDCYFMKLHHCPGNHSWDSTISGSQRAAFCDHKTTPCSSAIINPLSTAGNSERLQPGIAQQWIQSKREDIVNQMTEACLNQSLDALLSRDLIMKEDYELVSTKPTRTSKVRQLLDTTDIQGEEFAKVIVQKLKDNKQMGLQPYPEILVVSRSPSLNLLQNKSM

IC50 [1] [nM] | IC50 [2] [nM] | SMILES
1 to 100 | > 1000 | Cc1ccc2[nH]ncc2c1-c1ccc2nc(N)c(C(=O)C3CC3)n2c1 [Example 3]
1 to 100 | 101 to 500 | Nc1nc2ccc(-c3cnc4[nH]ccc4c3)cn2c1C(=O)[C@@H]1C[C@@H]1F [Example 32]
1 to 100 | 101 to 500 | Nc1nc2ccc(-c3cnc4[nH]ccc4c3Cl)cn2c1C(=O)[C@@H]1C[C@@H]1F [Example 41]
1 to 100 | 501 to 1000 | Nc1nc2ccc(-c3cccc(F)c3Cl)cn2c1C(=O)[C@@H]1C[C@@H]1F [Example 44]
101 to 500 | – | Nc1nc2c(F)cc(-c3ccc4[nH]ccc4c3)cn2c1C(=O)[C@@H]1C[C@@H]1F [Example 92]
> 1000 | – | Cc1c(F)cccc1-c1ccc2nc(NCCN)c(C(=O)[C@@H]3C[C@@H]3F)n2c1 [Example 93]
101 to 500 | – | Nc1nc2c(F)cc(-c3cccc4[nH]ccc34)cn2c1C(=O)[C@@H]1C[C@@H]1F [Example 96]
1 to 100 | – | Cc1c(-c2cc(F)c3nc(N)c(C(=O)[C@@H]4C[C@@H]4F)n3c2)cnc2[nH]ccc12 [Example 97]
> 1000 | – | CC(C)(C)OC(=O)n1cc(-c2ccc3nc(N)c(C(=O)[C@@H]4C[C@@H]4F)n3c2)c2ccccc21 [Example 98]
101 to 500 | – | Cc1c(F)cccc1-c1cc(F)c2nc(N)c(C(=O)[C@@H]3C[C@@H]3F)n2c1 [Example 99, (2-amino-8-fluoro-6-(3-fluoro-2-methylphenyl)imidazo[1,2-a]pyridin-3-yl)((1S,2S)-2-fluorocyclopropyl)methanone]
1 to 100 | – | Nc1nc2ccc(-c3ccc4[nH]cnc4c3)cn2c1C(=O)[C@@H]1C[C@@H]1F [Example 102]
101 to 500 | – | Cc1c(-c2ccc3nc(N)c(C(=O)[C@@H]4C[C@@H]4F)n3c2)ccc2[nH]cnc12 [Example 103]
101 to 500 | – | Cc1c(-c2ccc3nc(N)c(C(=O)[C@@H]4C[C@@H]4F)n3c2)cnc2c1ccn2C [Example 106]
> 1000 | – | Cc1c(F)cccc1-c1ccc2nc(N)c(C(=O)N(C)C3CC3)n2c1 [Example 107, 2-amino-N-cyclopropyl-6-(3-fluoro-2-methylphenyl)-N-methylimidazo[1,2-a]pyridine-3-carboxamide]
101 to 500 | – | Cc1c(F)cccc1-c1ccc2nc(N)c(C(=O)N[C@@H]3C[C@@H]3F)n2c1 [Example 108]
101 to 500 | – | Cc1c(F)cccc1-c1ccc2nc(N)c(C(=O)NC3CC3)n2c1 [Example 109]
101 to 500 | – | Nc1nc2ccc(-c3c[nH]c4ccc(Cl)cc34)cn2c1C(=O)[C@@H]1C[C@@H]1F [Example 111]
> 1000 | – | CC(=O)NNC(=O)c1c(N)nc2ccc(-c3cccc(F)c3C)cn12 [Example 112, N′-acetyl-2-amino-6-(3-fluoro-2-methylphenyl)imidazo[1,2-a]pyridine-3-carbohydrazide]
101 to 500 | – | Nc1nc2ccc(-c3cnc4ccccc4c3)cn2c1C(=O)[C@@H]1C[C@@H]1F [Example 116]
1 to 100 | – | Nc1nc2ccc(-c3cncc4ccccc34)cn2c1C(=O)[C@@H]1C[C@@H]1F [Example 117]

IC50 [1] [nM] | IC50 [2] [nM] | SMILES
1 to 100 | – | Cc1ccccc1-c1ccc2nc(N)c(C(=O)[C@@H]3C[C@@H]3F)n2c1 [Example 118]
101 to 500 | – | Nc1nc2ccc(-c3ccccc3OCCF)cn2c1C(=O)[C@@H]1C[C@@H]1F [Example 119]
101 to 500 | – | Nc1nc2ccc(-c3cccc(F)c3OCCF)cn2c1C(=O)[C@@H]1C[C@@H]1F [Example 120]
> 1000 | – | CC(C)(C)OC(=O)n1cccc1-c1ccc2nc(N)c(C(=O)[C@@H]3C[C@@H]3F)n2c1 [Example 121]
> 1000 | – | CC(C)(C)OC(=O)n1ccc(-c2ccc3nc(N)c(C(=O)[C@@H]4C[C@@H]4F)n3c2)c1 [Example 122]
101 to 500 | – | Nc1nc2ccc(-c3cccc(F)c3CCCO)cn2c1C(=O)[C@@H]1C[C@@H]1F [Example 123]
> 1000 | – | Nc1nc2ccc(-c3ccc[nH]3)cn2c1C(=O)[C@@H]1C[C@@H]1F [Example 124]
> 1000 | – | Nc1nc2ccc(-c3cc[nH]c3)cn2c1C(=O)[C@@H]1C[C@@H]1F [Example 125]
> 1000 | – | Nc1nc2ccc(-c3cccc(F)c3CCO)cn2c1C(=O)[C@@H]1C[C@@H]1F [Example 126]
> 1000 | – | Nc1nc2ccc(-c3cccc(F)c3CO)cn2c1C(=O)[C@@H]1C[C@@H]1F [Example 127]
101 to 500 | – | Nc1nc2ccc(-c3ccccc3CCO)cn2c1C(=O)[C@@H]1C[C@@H]1F [Example 128]
101 to 500 | – | Nc1nc2ccc(-c3ccccc3CCCO)cn2c1C(=O)[C@@H]1C[C@@H]1F [Example 129]
101 to 500 | – | Nc1nc2ccc(-c3ccccc3CCF)cn2c1C(=O)[C@@H]1C[C@@H]1F [Example 130]
101 to 500 | – | Nc1nc2ccc(-c3cccc(F)c3CCCF)cn2c1C(=O)[C@@H]1C[C@@H]1F [Example 131]
101 to 500 | – | Nc1nc2ccc(-c3ccccc3CCCF)cn2c1C(=O)[C@@H]1C[C@@H]1F [Example 132]
1 to 100 | – | Cc1c(N)cc(F)cc1-c1ccc2nc(N)c(C(=O)[C@@H]3C[C@@H]3F)n2c1 [Example 133]
1 to 100 | – | Cc1cc(-c2ccc3nc(N)c(C(=O)[C@@H]4C[C@@H]4F)n3c2)c(F)cc1N [Example 134]
101 to 500 | – | COC(=O)c1c(N)nc2ccc(-c3cccc(F)c3C)cn12 [Example 135, methyl 2-amino-6-(3-fluoro-2-methylphenyl)imidazo[1,2-a]pyridine-3-carboxylate]
> 1000 | – | Nc1nc2ccc(-c3cccc(F)c3CCF)cn2c1C(=O)[C@@H]1C[C@@H]1F [Example 136]
> 1000 | – | CC(C)(C)OC(=O)NCc1ccccc1-c1ccc2nc(N)c(C(=O)[C@@H]3C[C@@H]3F)n2c1 [Example 137]

IC50 [1] [nM] | IC50 [2] [nM] | SMILES
> 1000 | – | NCc1ccccc1-c1ccc2nc(N)c(C(=O)[C@@H]3C[C@@H]3F)n2c1 [Example 138]
> 1000 | – | Nc1nc2ccc(-c3ccccc3CCF)cn2c1C(=O)[C@@H]1C[C@H]1F [Example 139]
> 1000 | – | Nc1nc2ccc(-c3ccccc3CCF)cn2c1C(=O)[C@H]1C[C@@H]1F [Example 140]
1 to 100 | – | Cc1ccc(N)cc1-c1ccc2nc(N)c(C(=O)[C@@H]3C[C@@H]3F)n2c1 [Example 142]
> 1000 | – | Cc1cccc(N)c1-c1ccc2nc(N)c(C(=O)[C@@H]3C[C@@H]3F)n2c1 [Example 143]
101 to 500 | – | CO/C=C/c1c(F)cccc1-c1ccc2nc(N)c(C(=O)[C@@H]3C[C@@H]3F)n2c1 [Example 144]
1 to 100 | – | C=Cc1c(F)cccc1-c1ccc2nc(N)c(C(=O)[C@@H]3C[C@@H]3F)n2c1 [Example 145]
101 to 500 | – | CNc1cc(F)cc(-c2ccc3nc(N)c(C(=O)[C@@H]4C[C@@H]4F)n3c2)c1C [Example 146]
101 to 500 | – | Cc1c(-c2ccc3nc(N)c(C(=O)[C@@H]4C[C@@H]4F)n3c2)cc(F)cc1N(C)C [Example 147]
101 to 500 | – | Cc1c(F)cccc1Nc1ccc2nc(N)c(C(=O)[C@@H]3C[C@@H]3F)n2c1 [Example 148, (2-amino-6-((3-fluoro-2-methylphenyl)amino)imidazo[1,2-a]pyridin-3-yl)((1S,2S)-2-fluorocyclopropyl)methanone]
> 1000 | – | CN(C)c1c(F)c(Cl)c(-c2ccc3nc(N)c(C(=O)NC4CC4)n3c2)c2cn[nH]c12 [Example 149]
> 1000 | – | CSc1c(F)c(Cl)c(-c2ccc3nc(N)c(C(=O)O[C@@H]4COC[C@H]4C)n3c2)c2cn[nH]c12 [Example 151, (3S,4R)-4-methyltetrahydrofuran-3-yl 2-amino-6-(5-chloro-6-fluoro-7-(methylthio)-1H-indazol-4-yl)imidazo[1,2-a]pyridine-3-carboxylate]
1 to 100 | – | Cc1c(F)cc(N)cc1-c1ccc2nc(N)c(C(=O)[C@@H]3C[C@@H]3F)n2c1 [Example 155]
1 to 100 | – | Nc1nc2ccc(-c3ccc4[nH]ccc4c3)cn2c1C(=O)[C@H]1C[C@H]1F [Example 156]
1 to 100 | – | Nc1nc2ccc(-c3ccc4[nH]ccc4c3)cn2c1C(=O)[C@H]1C[C@@H]1F [Example 157]
1 to 100 | – | Nc1nc2ccc(-c3ccc4[nH]ccc4c3)cn2c1C(=O)[C@@H]1C[C@H]1F [Example 158]
1 to 100 | – | Cc1c(-c2ccc3nc(N)c(C(=O)[C@H]4C[C@H]4F)n3c2)ccc2[nH]ccc12 [Example 159]
101 to 500 | – | Cc1c(F)cccc1Oc1ccc2nc(N)c(C(=O)[C@@H]3C[C@@H]3F)n2c1 [Example 160]
1 to 100 | – | Cc1c(-c2ccc3nc(N)c(C(=O)[C@H]4C[C@@H]4F)n3c2)ccc2[nH]ccc12 [Example 161]
1 to 100 | – | Cc1c(-c2ccc3nc(N)c(C(=O)[C@@H]4C[C@H]4F)n3c2)ccc2[nH]ccc12 [Example 162]

SMILES | IC50 [1] [nM] | IC50 [2] [nM]
Nc1nc2ccc(-c3cnc4[nH]ccc4c3)cn2c1C(=O)C1CCNC1 (centres unmarked) [Example 91] | 101 to 500 | –
